Like-named read-outs stand apart in the source and are kept apart here.
Columns and labels:
[1] = biological target: T1, p38α (Homo sapiens, UniProt Q16539); test: p38 MAP Kinase assay, ATF2 phosphorylation (ELISA); format: biochemical; details: 40 μM ATP
T1 construct: p38 MAP Kinases are recombinant human full-length proteins with an amino-terminal GST fusion; GST (N); purchased Upstate (Charlottesville, Va.); host or cells: E. coli
Description: Compounds of the invention are screened for the ability to inhibit ATF2 phosphorylation by p38 MAP Kinase in vitro. The ability of compounds to inhibit ATF2 phosphorylation in this in vitro assay is correlated with the inhibition of p38 MAP Kinase and TNFα expression in vivo, and is therefore an indicator of potential in vivo therapeutic activity (Raingeaud, J., et al, J. Biol. Chem., 270: 7420-7426, 1995, Brinkman, M. N., et al, J. Bil. Chem. 274: 30882-30886, 1999 and Fuchs, S. Y. et al, J. Biol. Chem. 275: 12560-12564, 2000).
All kinases and the substrate ATF2 are acquired from Upstate (Charlottesville, Va.). p38 MAP Kinases are recombinant human full-length proteins with an amino-terminal GST fusion, expressed in and purified from E. coli. ATF2 is a GST fusion protein containing amino acids 19-96 of human ATF2 expressed in E. coli. All proteins were aliquoted and stored at −80° C.
p38 MAP Kinase assays are performed using an assay buffer containing 25 mM HEPES, pH 7.5, 10 mM MgCl2, 2 mM DTT, 20 mM β-glycerophosphate, 0.1 mM Na3VO4, 40 μM ATP and 1.25 μM of ATF2, together with 6 ng of p38α protein, 12 ng p38β protein, 1.5 ng p38γ, or 0.4 ng JNK2α2. Compounds are serially diluted in DMSO and 2 μL of test compound at 25× final concentration is used. The vehicle control receives DMSO only. Test compounds are pre-incubated with 20 μl of enzyme in kinase buffer (25 mM HEPES, pH 7.5, 10 mM MgCl2, 2 mM DTT, 20 mM 3-glycerophosphate and 0.1 mM Na3VO4) at room temperature for 15 minutes. […] The reactions are incubated for 30 minutes at 37° C. and terminated by the addition of 18 μl of 200 mM EDTA. An ELISA method is used to measure the phosphorylation of ATF2 at Thr 69. High binding 96-well plates (Corning 3369) are coated with 50 μl of kinase reaction for 1 hour at 37° C. The coated plates are washed with 200 μl washing buffer (25 mM Tris HCl, pH 8.3, 192 mM glycine, 0.1% SDS and 0.05% Tween-20) three times. The plates are then washed three times with SuperBlock in TBS (Pierce, 37535). After blocking, plates are incubated with 50 μl of rabbit anti-phospho-ATF2 antibody (Cell Signaling, 9221 L, 1:500) for 30 minutes at 37° C. Plates are washed three times with washing buffer prior to incubation with 50 μl HRP-conjugated goat anti-rabbit antibody (Cell Signaling, 7074, 1:500) for 30 minutes at 37° C. Plates are then washed three times with washing buffer before incubation with 50 μl of Ultra TMB-ELISA (Pierce, 34028) for 8 minutes at room temperature. Finally, 50 μl of phosphoric acid (1 M) is added to stop reactions and plate absorbance is read at 450 nm on a SpectraMax 250 plate reader.

[2] = test system: TNFα release from THP-1 cells; test: TNFα release from LPS-stimulated THP-1 cells; format: cell-based
Description: Compounds of the invention are screened for the ability to inhibit TNFα and IL-1β release from THP-1 cells stimulated with lipopolysaccharide (LPS) in vitro. The ability of compounds to inhibit TNFα and IL-1β release in this in vitro assay is correlated with the inhibition of p38 activity and TNFα and IL-1β expression in vivo, and is therefore an indicator of potential in vivo therapeutic activity (Lee J. C. et al, Ann. N.Y. Acad. Sci. 696: 149-170, 1993 and Nature, 372: 739-746, 1994).
THP-1 cells from ATCC (TIB202) are maintained at 37° C., 5% CO2 in RPMI 1640 media (MediaTech, Herndon, Va.) containing 4.5 g/L glucose, supplemented with 10% fetal bovine serum, 1% penicillin/streptomycin and 50 μM β-mercaptoethanol.
Test compounds are initially dissolved in RPMI media with 1% DMSO (v/v). Compounds are then serially diluted in RPMI media for all subsequent dilutions. The assay is performed under sterile conditions. THP-1 cells at a culture density of 6-8×10^5 cells/ml are collected and resuspended in the RPMI media at 10^6 cells/ml. 100 μl of resuspended cells are added to each well, which contain 100 μl of a test compound. Test compounds are prepared at twice the final concentration. Final DMSO concentration is no more than 0.5% (v/v). Cells are preincubated with compound for 30 minutes at 37° C., 5% CO2 prior to stimulation with lipopolysaccharide (LPS) (Sigma L-2880, 4 mg/ml stock in PBS). The final LPS concentration in each well is 10 or 30 μg/ml for TNFα and IL-1β release, respectively. Unstimulated control cell suspensions receive PBS vehicle only. Cell mixtures are incubated for 18 or 48 hours for TNFα and IL-1β release, respectively. 150 μl of supernatants are taken and transferred to a fresh plate and stored at −20° C. until further analysis.

[3] = LPS 10 μg/ml, 18 hours, read-out: TNFα (THP-1) IC50
[4] = Homo sapiens, THP-1, 18 h, LPS 10 μg/ml, 18 hours, read-out: TNFα (THP-1) IC50
[5] = Homo sapiens, THP-1, 18 h, read-out: TNFα (THP-1) IC50 (nM)

T1 sequence (Q16539 whole entry, the tested form may be a part): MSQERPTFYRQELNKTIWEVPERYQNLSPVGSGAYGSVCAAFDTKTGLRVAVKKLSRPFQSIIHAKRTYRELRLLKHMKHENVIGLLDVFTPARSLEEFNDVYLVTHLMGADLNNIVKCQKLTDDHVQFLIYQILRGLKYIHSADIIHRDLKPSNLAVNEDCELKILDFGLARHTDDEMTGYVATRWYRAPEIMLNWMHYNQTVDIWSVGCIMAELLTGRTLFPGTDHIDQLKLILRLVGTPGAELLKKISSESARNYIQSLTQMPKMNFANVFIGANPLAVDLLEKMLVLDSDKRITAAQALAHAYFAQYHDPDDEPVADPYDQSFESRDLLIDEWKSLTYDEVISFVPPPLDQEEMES

| SMILES | IC50 [1] | IC50 [2, 3] | IC50 [2, 4] | IC50 [2, 5] |
| --- | --- | --- | --- | --- |
| CC(C)[C@@H](CO)Nc1nccc(-c2c(-c3ccc(F)c(F)c3)nc3sccn23)n1 [CCLXXV] | 191 nM | 43.3 nM | – | – |
| CN(C)CC(C)(C)CNc1nccc(-c2c(-c3ccccc3Cl)nc3occn23)n1 [CCLXXXII] | 44.8 nM | – | 88.4 nM | – |
| Fc1ccc(-c2nc3occn3c2-c2ccnc(N[C@@H]3CN4CCC3CC4)n2)c(F)c1 [CCLXXXIX] | 1.3 nM | – | – | 3.2 nM |
| CC(C)(C)OC(=O)N1CCC(Nc2nccc(-c3c(-c4ccccc4Cl)nc4occn34)n2)CC1 [CCLXXXVII] | 8.2 nM | – | 170 nM | – |
| Fc1ccc(-c2nc3occn3c2-c2ccnc(NC3CCNCC3)n2)c(Cl)c1 [CCLXXXVI] | 7 nM | – | 67.3 nM | – |
| COc1cccc(-c2nc3sccn3c2-c2ccnc(N[C@H](CO)C(C)C)n2)c1 [CCLXX] | 112 nM | 93.5 nM | – | – |
| CC(C)(Nc1nccc(-c2c(-c3ccc(F)cc3)nc3sccn23)n1)C(O)c1ccccc1 (stereo not drawn) [CCLX] | 30 nM | – | 213 nM | – |
| OC1(CNc2nccc(-c3c(-c4ccc(F)cc4)nc4sccn34)n2)CCCCC1 [CCL] | 27.2 nM | – | 15.5 nM | – |
| CC(C)[C@@H](CO)Nc1nccc(-c2c(-c3ccc(F)c(F)c3)nc3sccn23)n1 [CCVII] | 191 nM | – | 43.4 nM | – |
| FC(F)(F)c1cccc(-c2nc3occn3c2-c2ccnc(N[C@@H]3CN4CCC3CC4)n2)c1 [CCXCIII] | 4.9 nM | – | 172 nM | – |
| Cc1ccccc1-c1nc2occn2c1-c1ccnc(N[C@@H]2CN3CCC2CC3)n1 [CCXCII] | 16.3 nM | – | – | 47.8 nM |
| FC(F)(F)c1cccc(-c2nc3occn3c2-c2ccnc(N[C@H]3CN4CCC3CC4)n2)c1 [CCXCIV] | 16.4 nM | – | 90 nM | – |
| CN(C)CC(C)(C)CNc1nccc(-c2c(-c3ccc(F)cc3F)nc3occn23)n1 [CCXCIX] | 6.1 nM | – | 17.8 nM | – |
| Clc1ccccc1-c1nc2occn2c1-c1ccnc(N[C@@H]2CN3CCC2CC3)n1 [CCXCI] | 11.2 nM | – | – | 77 nM |
| Cc1ccccc1-c1nc2occn2c1-c1ccnc(NCC(C)(C)CN(C)C)n1 [CCXCVIII] | 52.2 nM | – | 85.1 nM | – |
| CN1[C@@H]2CC[C@H]1C[C@@H](Nc1nccc(-c3c(-c4ccccc4Cl)nc4occn34)n1)C2 [CCXCVII] | 6.8 nM | – | – | 24.4 nM |
| CN1[C@@H]2CC[C@H]1C[C@@H](Nc1nccc(-c3c(-c4ccc(F)cc4Cl)nc4occn34)n1)C2 [CCXCVI] | 3.6 nM | – | – | 15.5 nM |
| Fc1ccc(-c2nc3occn3c2-c2ccnc(N[C@H]3CN4CCC3CC4)n2)c(Cl)c1 [CCXCV] | 9.7 nM | – | 8.7 nM | – |
| CN(C)CC(C)(C)CNc1nccc(-c2c(-c3ccc(F)cc3Cl)nc3occn23)n1 [CCXCX] | 20.3 nM | – | 78.2 nM | – |
| Fc1ccc(-c2nc3occn3c2-c2ccnc(N[C@@H]3CN4CCC3CC4)n2)c(Cl)c1 [CCXC] | 6.8 nM | – | 72 nM | – |
| Fc1ccc(-c2nc3sccn3c2-c2ccnc(NCC3CC3)n2)cc1 [CCXIII] | 13.3 nM | – | 5.63 nM | – |
| Oc1ccc(C(O)CNc2nccc(-c3c(-c4ccc(F)cc4)nc4sccn34)n2)cc1 (stereo not drawn) [CCXII] | 8.81 nM | – | 24.1 nM | – |
| C[C@H](O)CNc1nccc(-c2c(-c3ccc(F)cc3)nc3sccn23)n1 [CCXIV] | 12.1 nM | – | 5.03 nM | – |
| Cc1ccc(-c2nc3sccn3c2-c2ccnc(N[C@H](CO)C(C)C)n2)cc1 [CCXI] | 147 nM | – | 58.9 nM | – |
| CN(C)CC(C)(C)CNc1nccc(-c2c(-c3ccc(F)cc3)nc3sccn23)n1 [CCXLIV] | 11.4 nM | – | 5.98 nM | – |
| Fc1ccc(-c2nc3sccn3c2-c2ccnc(NCCN3CCOCC3)n2)cc1 [CCXLIX] | 31.6 nM | – | 20.3 nM | – |
| OC1(CNc2nccc(-c3c(-c4ccc(F)cc4)nc4sccn34)n2)CCCc2ccccc21 (stereo not drawn) [CCXLVIII] | 8.39 nM | – | 20.8 nM | – |
| Fc1ccc(-c2nc3sccn3c2-c2ccnc(NCCN3CCCCC3)n2)cc1 [CCXLV] | 82.1 nM | – | 14.2 nM | – |
| Fc1ccc(-c2nc3sccn3c2-c2ccnc(NCc3nc4ccccc4[nH]3)n2)cc1 [CCXL] | 135 nM | – | 3300 nM | – |
| Fc1ccc(-c2nc3sccn3c2-c2ccnc(NCCc3ccncc3)n2)cc1 [CCXVIII] | 5.87 nM | – | 4.46 nM | – |

Further compounds by falling IC50 [1], results first:

| IC50 [1] | IC50 [2, 3] | IC50 [2, 4] | SMILES | IC50 [2, 5] |
| --- | --- | --- | --- | --- |
| 5.45 nM | – | 49.6 nM | CCCC[C@@H](CO)Nc1nccc(-c2c(-c3ccc(F)cc3)nc3sccn23)n1 [CCXXII] | – |
| 4.84 nM | – | 33.2 nM | Fc1ccc(CCNc2nccc(-c3c(-c4ccc(F)cc4)nc4sccn34)n2)cc1 [CCXLVII] | – |
| 4.8 nM | – | 211 nM | Cc1ccccc1-c1nc2occn2c1-c1ccnc(NC2CCN(C(=O)OC(C)(C)C)CC2)n1 [CCLXXXVIII] | – |
| 4.68 nM | – | 5.15 nM | CCCNc1nccc(-c2c(-c3ccc(F)cc3)nc3sccn23)n1 [CCXVI] | – |
| 3.3 nM | – | 9.9 nM | Fc1ccc(-c2nc3occn3c2-c2ccnc(NC3CCNCC3)n2)c(F)c1 [CCLXXXV] | – |
| 3.28 nM | – | 3.83 nM | CCC(O)CNc1nccc(-c2c(-c3ccc(F)cc3)nc3sccn23)n1 (stereo not drawn) [CCXLII] | – |
| 3.06 nM | – | 23.9 nM | Oc1cccc(C(O)CNc2nccc(-c3c(-c4ccc(F)cc4)nc4sccn34)n2)c1 (stereo not drawn) [CCXLVI] | – |
| 3.03 nM | – | 6.84 nM | CC[C@@H](CO)Nc1nccc(-c2c(-c3ccc(F)cc3)nc3sccn23)n1 [CCXIX] | – |
| 2.81 nM | – | 5.18 nM | CC(C)(CO)Nc1nccc(-c2c(-c3ccc(F)cc3)nc3sccn23)n1 [CCXLI] | – |
| 2.32 nM | – | 8.58 nM | COCC(C)Nc1nccc(-c2c(-c3ccc(F)cc3)nc3sccn23)n1 (stereo not drawn) [CCXV] | – |
| 2.19 nM | – | 19.5 nM | Nc1ccc(CCNc2nccc(-c3c(-c4ccc(F)cc4)nc4sccn34)n2)cc1 [CCXLIII] | – |
| 1.57 nM | – | 5.56 nM | O[C@H]1CC[C@H](Nc2nccc(-c3c(-c4ccc(F)cc4)nc4sccn34)n2)CC1 [CCXXI] | – |
| 1.4 nM | – | 96.2 nM | CC(C)(C)OC(=O)N1CCC(Nc2nccc(-c3c(-c4ccc(F)cc4Cl)nc4occn34)n2)CC1 [CCLXXXIV] | – |
| 1.19 nM | – | 7.84 nM | CCOC(=O)N1CCC(Nc2nccc(-c3c(-c4ccc(F)cc4)nc4sccn34)n2)CC1 [CCXVII] | – |
| 1.1 nM | – | 52.7 nM | CC(C)(C)OC(=O)N1CCC(Nc2nccc(-c3c(-c4ccc(F)cc4F)nc4occn34)n2)CC1 [CCLXXXIII] | – |
